According to US12697326B2, “Methods of treating hepatic encephalopathy” (SALIX PHARMACEUTICALS, INC., priority 2008, dated 2026):

Assays:
patients with HE [1] = assay: Retrospective chart review of 145 patients with HE, lactulose then rifaximin; type: in vivo, human
Description: Total number of hospitalizations, duration of hospitalizations, HE endpoints, and cost of therapy were compared between the 2 treatment regimens.

[2] = tested on: liver transplant patients with HE; assay: Chart review of 39 liver transplant patients with HE Conn scores of 2; type: in vivo, human; conditions: 24 lactulose, 15 rifaximin
patients with HE [3] = conditions: 6-month study; rifaximin 1200 mg/day, neomycin 3 g/day; 14 days on, 14 days off per month; cited from earlier work

Compound | patients with Conn scores of 3 or 4 at end of treatment period (patients with HE [1]) [%] | hospitalizations reported for the group [2] | efficacy in patients with HE, rifaximin versus neomycin (patients with HE [3])
OC[C@H]1O[C@@H](O[C@@H]2[C@@H](CO)OC(O)(CO)[C@H]2O)[C@H](O)[C@@H](O)[C@H]1O (mixture of isomers) [lactulose] | 25 | Nineteen | –
neomycin | – | – | comparable efficacy
